# Target: AR / CBP ternary complex (Homo sapiens, UniProt P10275+Q92793)
# Experiment: Ternary complex formation assay (sandwich ELISA, AR capture, CBP antibody detection) in VCaP cell lysates
# Type: cell-based
# Details: treated 1.5 hours, rabbit CBP or p300 antibody detection, average, read-out: Average Ternary Complex
# Description: Black MaxiSorp plates: coat with 50 μL of mouse 1/50 diluted AR antibody (Monoclonal Antibody (AR 441 from Thermo Fisher); diluted in phosphate buffered saline (PBS). Spin the liquid to the bottom of the wells, if necessary. Incubate overnight at 4° C. Next day, wash 3 times with 200 μL of TBST. Block with 200 μL of blocking buffer (5% BSA in TBST) at room temperature for 2 hours (BSA: A4503 or A2153 from Sigma). Wash plates 3 times with TBST. Plates are ready for lysates Preparation of dimerizer treated lysates
# Culture cells in 96 wells at 50K VCaP cells/well for at least 3 days. Plate in 5% Omega charcoal stripped FBS in total volume of 200 uL. Treat with bifunctional for 1.5 hours by adding 1 μL of 200× stock in DMSO. Aspirate media/compound. Add and pipet-to-mix 70 μL of 1× AlphaLisa Lysis Buffer to each well (Perkin Elmer, AlphaLISA SureFire Ultra, diluted in water). Pipet up and down when adding lysis buffer to disrupt cells. Let lysis proceed for 30 min at 4° C.
# Incubate for 1 hour at room temperature. Flick out the lysates. Wash 3 times with TBST. Add 75 μL of rabbit CBP or p300 antibody to each well (diluted 1:5000 in blocking buffer (5% BSA in TBST). CBP antibody: (D6C5) Rabbit mAb #7389; p300 antibody: (D8Z4E) Rabbit mAb #86377. Incubate overnight at 4° C. Wash 3 times with 300 uL TBST, each time on shaker for 5-10 min. Prepare goat anti-rabbit antibody conjugated to HRP (1/100K dilution in blocking buffer) Invitrogen Catalog number: 32260. Add 75 μL of HRP-conjugated goat anti-rabbit antibody. Incubate at room temperature for 1 hour. Flick out the HRP-antibody mixture. Wash 7-8 times with TBST, each time on shaker for 10 min. Later washes try to overflow the wells so that no residual HRP remains bound to the sides of the well. Prepare and add 75 uL/well of QuantaRed Enhance Chemifluorescent HRP Substrate solution. Immediately read fluorescence on BMG ClarioStar (ex: 570/em 585), and repeat the read in 5 minutes and 15 minutes.
# Sequence of AR / CBP ternary complex (P10275 whole entry): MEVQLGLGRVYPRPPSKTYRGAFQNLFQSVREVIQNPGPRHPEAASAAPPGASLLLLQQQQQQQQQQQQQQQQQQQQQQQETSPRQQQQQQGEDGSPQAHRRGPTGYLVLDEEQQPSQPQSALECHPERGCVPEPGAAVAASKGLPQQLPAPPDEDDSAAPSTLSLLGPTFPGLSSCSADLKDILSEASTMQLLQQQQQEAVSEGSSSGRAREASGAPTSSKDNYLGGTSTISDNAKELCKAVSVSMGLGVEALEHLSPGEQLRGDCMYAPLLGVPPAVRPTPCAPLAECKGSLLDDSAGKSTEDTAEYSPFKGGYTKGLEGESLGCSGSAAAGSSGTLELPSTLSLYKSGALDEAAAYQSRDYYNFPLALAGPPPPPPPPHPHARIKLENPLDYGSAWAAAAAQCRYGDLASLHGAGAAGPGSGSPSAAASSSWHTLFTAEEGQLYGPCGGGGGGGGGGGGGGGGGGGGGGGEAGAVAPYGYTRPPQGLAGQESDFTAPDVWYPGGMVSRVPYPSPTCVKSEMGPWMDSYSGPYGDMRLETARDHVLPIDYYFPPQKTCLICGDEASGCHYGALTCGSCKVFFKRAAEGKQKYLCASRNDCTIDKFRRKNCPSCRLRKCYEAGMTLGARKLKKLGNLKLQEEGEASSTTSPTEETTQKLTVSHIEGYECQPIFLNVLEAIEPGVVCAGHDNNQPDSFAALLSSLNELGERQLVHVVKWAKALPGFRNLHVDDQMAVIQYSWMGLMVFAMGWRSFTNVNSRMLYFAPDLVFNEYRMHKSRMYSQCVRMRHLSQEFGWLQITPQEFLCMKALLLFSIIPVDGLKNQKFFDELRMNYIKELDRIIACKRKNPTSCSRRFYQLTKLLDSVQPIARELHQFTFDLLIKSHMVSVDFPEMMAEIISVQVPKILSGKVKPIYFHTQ
# Sequence of AR / CBP ternary complex (Q92793 2-2442): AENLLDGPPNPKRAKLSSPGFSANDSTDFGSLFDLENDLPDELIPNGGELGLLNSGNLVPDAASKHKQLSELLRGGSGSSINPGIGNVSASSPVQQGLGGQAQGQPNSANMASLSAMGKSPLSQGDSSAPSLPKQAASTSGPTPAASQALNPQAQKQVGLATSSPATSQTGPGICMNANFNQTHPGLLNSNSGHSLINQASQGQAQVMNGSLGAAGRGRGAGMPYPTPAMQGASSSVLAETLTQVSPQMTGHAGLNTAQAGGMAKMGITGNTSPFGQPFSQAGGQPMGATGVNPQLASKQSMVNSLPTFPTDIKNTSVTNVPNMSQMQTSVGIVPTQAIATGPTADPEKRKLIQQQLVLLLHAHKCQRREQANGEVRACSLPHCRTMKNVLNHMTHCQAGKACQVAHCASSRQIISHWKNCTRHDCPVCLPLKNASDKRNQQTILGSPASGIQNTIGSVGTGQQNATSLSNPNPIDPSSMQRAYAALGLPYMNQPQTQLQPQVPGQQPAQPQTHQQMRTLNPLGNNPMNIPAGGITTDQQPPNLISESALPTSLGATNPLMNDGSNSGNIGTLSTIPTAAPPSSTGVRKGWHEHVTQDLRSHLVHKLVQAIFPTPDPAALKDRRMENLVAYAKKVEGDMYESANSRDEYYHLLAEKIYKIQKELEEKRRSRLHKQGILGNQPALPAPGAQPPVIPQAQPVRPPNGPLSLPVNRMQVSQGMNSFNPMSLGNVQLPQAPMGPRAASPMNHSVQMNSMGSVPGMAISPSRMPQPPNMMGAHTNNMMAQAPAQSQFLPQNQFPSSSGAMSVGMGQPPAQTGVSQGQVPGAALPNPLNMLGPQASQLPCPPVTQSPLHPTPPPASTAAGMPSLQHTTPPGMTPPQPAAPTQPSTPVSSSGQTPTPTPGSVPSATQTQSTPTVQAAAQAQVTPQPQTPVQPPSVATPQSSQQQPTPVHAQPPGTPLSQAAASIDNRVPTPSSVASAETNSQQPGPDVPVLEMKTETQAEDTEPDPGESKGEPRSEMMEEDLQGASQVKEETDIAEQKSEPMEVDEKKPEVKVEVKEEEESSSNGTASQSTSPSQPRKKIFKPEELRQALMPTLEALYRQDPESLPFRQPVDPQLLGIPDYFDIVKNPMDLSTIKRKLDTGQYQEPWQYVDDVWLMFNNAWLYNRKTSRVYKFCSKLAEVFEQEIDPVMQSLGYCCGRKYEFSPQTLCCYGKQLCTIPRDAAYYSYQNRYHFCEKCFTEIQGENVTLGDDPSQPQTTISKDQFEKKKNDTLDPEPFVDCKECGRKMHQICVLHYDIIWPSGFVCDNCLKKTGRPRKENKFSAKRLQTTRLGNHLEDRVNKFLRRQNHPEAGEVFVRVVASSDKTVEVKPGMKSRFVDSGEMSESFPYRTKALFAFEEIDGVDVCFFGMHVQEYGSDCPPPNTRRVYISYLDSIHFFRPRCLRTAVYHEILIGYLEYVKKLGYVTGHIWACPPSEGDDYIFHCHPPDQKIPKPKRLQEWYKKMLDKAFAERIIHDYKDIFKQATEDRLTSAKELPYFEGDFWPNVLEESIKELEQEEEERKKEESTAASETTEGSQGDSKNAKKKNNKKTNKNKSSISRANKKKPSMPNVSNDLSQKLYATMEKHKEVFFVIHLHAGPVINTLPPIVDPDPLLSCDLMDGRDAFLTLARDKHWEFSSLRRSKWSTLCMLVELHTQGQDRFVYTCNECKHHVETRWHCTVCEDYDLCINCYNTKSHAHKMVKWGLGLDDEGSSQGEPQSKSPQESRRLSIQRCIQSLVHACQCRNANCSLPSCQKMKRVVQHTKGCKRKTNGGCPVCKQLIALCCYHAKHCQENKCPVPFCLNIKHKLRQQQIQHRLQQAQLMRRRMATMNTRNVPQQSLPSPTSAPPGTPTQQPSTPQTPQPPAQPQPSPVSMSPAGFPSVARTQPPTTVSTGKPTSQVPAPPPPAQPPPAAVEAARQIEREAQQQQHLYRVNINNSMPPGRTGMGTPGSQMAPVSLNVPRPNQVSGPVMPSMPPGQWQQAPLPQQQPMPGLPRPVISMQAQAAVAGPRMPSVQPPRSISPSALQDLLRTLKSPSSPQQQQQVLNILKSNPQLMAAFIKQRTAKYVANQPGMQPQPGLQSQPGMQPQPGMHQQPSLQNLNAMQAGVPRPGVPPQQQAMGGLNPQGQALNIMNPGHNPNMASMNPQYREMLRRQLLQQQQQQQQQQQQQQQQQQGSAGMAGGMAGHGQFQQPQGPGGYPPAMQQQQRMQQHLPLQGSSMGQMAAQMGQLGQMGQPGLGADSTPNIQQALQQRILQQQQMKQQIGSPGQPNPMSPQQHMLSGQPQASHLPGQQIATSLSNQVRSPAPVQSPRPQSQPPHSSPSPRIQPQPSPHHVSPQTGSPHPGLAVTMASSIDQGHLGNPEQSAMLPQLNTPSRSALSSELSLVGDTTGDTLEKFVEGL
row,EC50 [nM],Compound
1,> 100,"CC(=O)N1CCc2c(c(N3CCCc4cc(-c5cnn(C)c5)c(C(F)F)cc43)nn2[C@H]2CC[C@]3(CCN(c4ccc(C(=O)N[C@H]5CC[C@H](Oc6ccc(C#N)c(Cl)c6)CC5)nn4)C3)CC2)C1 [Compound 264, 6-[8-[5-acetyl-3-[7-(difluoromethyl)-6-(1-methylpyrazol-4-yl)-3,4-dihydro-2H-quinolin-1-yl]-6,7-dihydro-4H-pyrazolo[4,3-c]pyridin-1-yl]-2-azaspiro[4.5]decan-2-yl]-N-[4-(3-chloro-4-cyano-phenoxy)cyclohexyl]pyridazine-3-carboxamide]"
2,< 1,"CC(=O)N1CCc2c(c(N3CCCc4cc(-c5cnn(C)c5)c(C(F)F)cc43)nn2[C@H]2CC[C@@]3(CCN(c4ccc(C(=O)N[C@H]5CC[C@H](Oc6ccc(C#N)c(Cl)c6)CC5)nn4)C3)CC2)C1 [Compound 265, 6-[8-[5-acetyl-3-[7-(difluoromethyl)-6-(1-methylpyrazol-4-yl)-3,4-dihydro-2H-quinolin-1-yl]-6,7-dihydro-4H-pyrazolo[4,3-c]pyridin-1-yl]-2-azaspiro[4.5]decan-2-yl]-N-[4-(3-chloro-4-cyano-phenoxy)cyclohexyl]pyridazine-3-carboxamide]"
3,> 100,CC(=O)N1CCc2c(c(N3CCCc4cc(-c5cnn(C)c5)c(C(F)F)cc43)nn2[C@H]2CC[C@]3(CCCN(c4ccc(C(=O)N[C@H]5CC[C@H](Oc6ccc(C#N)c(Cl)c6)CC5)nn4)C3)CC2)C1 [Compound 266]
4,< 1,"CC(=O)N1CCc2c(c(N3CCCc4cc(-c5cnn(C)c5)c(C(F)F)cc43)nn2[C@H]2CC[C@@]3(CCCN(C4CN(c5ccc(C(=O)N[C@H]6CC[C@H](Oc7ccc(C#N)c(Cl)c7)CC6)nn5)C4)C3)CC2)C1 [Compound 269, 6-[3-[9-[5-acetyl-3-[7-(difluoromethyl)-6-(1-methylpyrazol-4-yl)-3,4-dihydro-2H-quinolin-1-yl]-6,7-dihydro-4Hpyrazolo[4,3-c]pyridin-1-yl]-2-azaspiro[5.5]undecan-2-yl]azetidin-1-yl]-N-[4-(3-chloro-4-cyanophenoxy)cyclohexyl]pyridazine-3-carboxamide]"
5,< 1,CC(=O)N1CCc2c(c(N3CCCc4cc(-c5ccn(C)n5)c(C(F)F)cc43)nn2C2CCC3(CC2)CC(Oc2ccc(C(=O)N[C@H]4CC[C@H](Oc5ccc(C#N)c(Cl)c5)CC4)nn2)C3)C1 (stereo partly shown) [Compound 275]
6,< 1,CC(=O)N1CCc2c(c(N3CCCc4cc(C#N)c(C)cc43)nn2C2CCN(C[C@H]3[C@H](C)CN(c4ccc(C(=O)N[C@H]5CC[C@H](Oc6ccc(C#N)c(Cl)c6)CC5)nn4)C[C@@H]3C)CC2)C1 [Compound 285]
7,< 1,"CC(=O)N1CCc2c(c(N3CCCc4cc(-c5cnn(C)c5)c(C(F)F)cc43)nn2C2CCN(CC3C(C)CN(c4ccc(C(=O)N[C@H]5CC[C@H](Oc6ccc(C#N)c(C(F)(F)F)c6)CC5)nn4)CC3C)CC2)C1 (stereo partly shown) [Compound 290, 6-[4-[[4-[5-acetyl-3-[7-(difluoromethyl)-6-(1-methylpyrazol-4-yl)-3,4-dihydro-2H-quinolin-1-yl]-6,7-dihydro-4H-pyrazolo[4,3-c]pyridin-1-yl]-1-piperidyl]methyl]-3,5-dimethyl-1-piperidyl]-N-[4-[4-cyano-3-(trifluoromethyl)phenoxy]cyclohexyl]pyridazine-3-carboxamide]"
8,< 1,CC(=O)N1CCc2c(c(N3CCCc4cc(-c5cnn(C)c5)c(C)cc43)nn2C2CCN(CC3CCN(c4ccc(C(=O)N[C@H]5CC[C@H](Oc6ccc(C#N)c(C(F)(F)F)c6)CC5)nn4)CC3(C)C)CC2)C1 (stereo partly shown) [Compound 294]
9,< 1,CC(=O)N1CCc2c(c(N3CCCc4cc(-c5cnn(C)c5)c(C)cc43)nn2C2CCN(C3CCC4(CC3)CN(c3ccc(C(=O)N[C@H]5CC[C@H](Oc6ccc(C#N)c(Cl)c6)CC5)nn3)C4)CC2)C1 [Compound 295]
10,< 1,"COc1cc(O[C@H]2CC[C@H](NC(=O)c3ccc(N4CC5(CCC(N6CCC(n7nc(N8CCCc9cc(-c%10cnn(C)c%10)c(C)cc98)c8c7CCN(C(C)=O)C8)CC6)CC5)C4)nn3)CC2)ccc1C#N [Compound 296, 6-[7-[4-[5-acetyl-3-[7-methyl-6-(1-methylpyrazol-4-yl)-3,4-dihydro-2H-quinolin-1-yl]-6,7-dihydro-4H-pyrazolo[4,3-c]pyridin-1-yl]-1-piperidyl]-2-azaspiro [3.5]nonan-2-yl]-N-[4-(4-cyano-3-methoxy-phenoxy)cyclohexyl] pyridazine-3-carboxamide]"
11,> 100,CC(=O)N1CCc2c(c(N3CCCc4cc(-c5cnn(C)c5)c(C)cc43)nn2C2CCN(C3CCC4(CC3)CN(c3ccc(C(=O)N[C@H]5CC[C@H](Oc6ccc(C#N)c(C(F)(F)F)c6)CC5)nn3)C4)CC2)C1 [Compound 297]

# System: VCaP cells
# Experiment: VCaP growth inhibition assay (CTG)
# Type: cell-based
# Details: Homo sapiens, 216 h, 30 pM R1881, 9 days
# Description: VCaP cells (ATCC Cat #CRL-2876) are plated at 1×10^4 cells per well of a white plastic 96-well cluster plate (Thermo Scientific Nunc Cat #165306) in 100 uL phenol red-free DMEM (Gibco Cat #21063-029) media with 5% CSS (Omega Scientific Cat #FB-04). Cluster plates are returned to the incubator (37*C/5% CO2) for 72 hours prior to treatment. Just prior to treatment, 100 uL of phenol red-free DMEM/5% CSS and 60 pM R1881 (Sigma Cat #R0908-10 mg) was added to each well of the cluster plates (Final R1881 concentration=30 pM). Compounds (200X) were added to each well in a volume of 1 uL, with serial dilutions (1:5) from 20 uM to 2 pM (final concentrations in well are 100 nM to 10 fM). Cluster plates are returned to the incubator for 9 days.
# After the 9-day treatment period, media was removed from the cluster plates by inversion and 100 uL room temperature CTG reagent (Promega Cat #G7573) is added to each well. The cluster plates are placed on a shaker and incubated at room temperature for 20 minutes. Following this shaking/incubation, cluster plates are read on a luminometer (BMG ClarioStar). IC50 values are obtained by graphing the RLU data vs. compound concentration with nonlinear regression 4-parameter logistic curves (GraphPad Prism).
row,IC50 [nM],Compound
1,≤ 0.1,"CC(=O)N1CCc2c(c(-c3cccc4cc(-c5cnn(CC6CCN(c7ccc(C(=O)N[C@H]8CC[C@H](Oc9ccc(C#N)c(Cl)c9)CC8)nn7)CC6)c5)ncc34)nn2C)C1 [Compound 7, 6-[4-[[4-[8-(5-acetyl-1-methyl-6,7-dihydro-4H-pyrazolo[4,3-c]pyridin-3-yl)-3-isoquinolyl]pyrazol-1-yl]methyl]-1-piperidyl]-N-[4-(3-chloro-4-cyano-phenoxy)cyclohexyl]pyridazine-3-carboxamide]"
2,0.1 to 1,"CC(=O)N1CCc2c(c(Nc3ccc(-c4cnn(C)c4)cc3F)nn2C2CCN(CCC3CCN(c4ncc(C(=O)N[C@H]5CC[C@H](Oc6ccc(C#N)c(Cl)c6)CC5)cn4)CC3)CC2)C1 [Compound 10, 2-[4-[2-[4-[5-acetyl-3-[2-fluoro-4-(1-methylpyrazol-4-yl)anilino]-6,7-dihydro-4H-pyrazolo[4,3-c]pyridin-1-yl]-1-piperidyl]ethyl]-1-piperidyl]-N-[4-(3-chloro-4-cyano-phenoxy)cyclohexyl]pyrimidine-5-carboxamide]"
3,≤ 0.1,"COC1(CN2CCC(n3nc(N4CCCc5cc(-c6cnn(C)c6)c(C(F)F)cc54)c4c3CCN(C(C)=O)C4)CC2)CCN(c2ccc(C(=O)N[C@H]3CC[C@H](Oc4ccc(C#N)c(Cl)c4)CC3)nn2)CC1 [Compound 177, 6-[4-[[4-[5-acetyl-3-[7-(difluoromethyl)-6-(1-methylpyrazol-4-yl)-3,4-dihydro-2H-quinolin-1-yl]-6,7-dihydro-4H-pyrazolo [4,3-c]pyridin-1-yl]-1-piperidyl]methyl]-4-methoxy-1-piperidyl]-N-[4-(3-chloro-4-cyano-phenoxy)cyclohexyl]pyridazine-3-carboxamide]"
4,0.1 to 1,"CC(=O)N1CCc2c(c(-c3cccc4cc(-c5ccc(N6CCC7(CC6)CCN(c6ccc(C(=O)N[C@H]8CC[C@H](Oc9ccc(C#N)c(Cl)c9)CC8)nn6)CC7)nc5)ncc34)nn2C2CCOCC2)C1 [Compound 179, 6-[9-[5-[8-(5-acetyl-1-tetrahydropyran-4-yl-6,7-dihydro-4H-pyrazolo[4,3-c]pyridin-3-yl)-3-isoquinolyl]-2-pyridyl]-3,9-diazaspiro[5.5]undecan-3-yl]-N-[4-(3-chloro-4-cyano-phenoxy)cyclohexyl]pyridazine-3-carboxamide]"
5,≤ 0.1,"CC(=O)N1CCc2c(c(N3CCCc4cc(-c5cnn(C)c5)c(C(F)F)cc43)nn2C2CCN(C3CCC4(CC3)CN(c3ccc(C(=O)N[C@H]5CC[C@H](Oc6ccc(C#N)c(Cl)c6)CC5)nn3)C4)CC2)C1 [Compound 185, 6-[7-[4-[5-acetyl-3-[7-(difluoromethyl)-6-(1-methylpyrazol-4-yl)-3,4-dihydro-2H-quinolin-1-yl]-6,7-dihydro-4H-pyrazolo[4,3-c]pyridin-1-yl]-1-piperidyl]-2-azaspiro[3.5]nonan-2-yl]-N-[4-(3-chloro-4-cyano-phenoxy)cyclohexyl]pyridazine-3-carboxamide]"

# From patent US20250136578A1 (Kolm Therapeutics Inc., priority 2023, published 2025)
